The results in this text go back to PubChem BioAssay (NCI).

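Following 48 hours of exposure in 96-well plates, responses at five concentrations were used to interpolate endpoints linearly. At the GI50, growth is halved. TGI is the concentration that stops growth completely.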

Among the test systems are ACHN renal; CCRF-CEM leukemia; COLO 205 colon; EKVX NSCLC; HOP-92 NSCLC; M14 melanoma; MALME-3M melanoma; OVCAR-3 ovarian; OVCAR-8 ovarian; SN12C renal.
Holding throughout (assay): NCI tumour cell line growth inhibition, 48 h

As for `O=[N+]([O-])c1ccccc1C=NC12CC3CC(CC(C3)C1)C2`, the TGI in the assay on ACHN renal, with CCRF-CEM leukemia, in the assay on COLO 205 colon, in the assay with EKVX NSCLC, with HOP-92 NSCLC and in the assay with M14 melanoma was more than 100 µM throughout. Besides, the TGI with MALME-3M melanoma, with OVCAR-3 ovarian, in the assay with OVCAR-8 ovarian and in the assay on SN12C renal was more than 100 µM throughout.

For the compound `c1cncc(C2Nc3cccc4cccc(c34)N2)c1`, the GI50 was 17.3 µM in the assay with ACHN renal; 22.6 µM in the assay on CCRF-CEM leukemia; 22.6 µM with COLO 205 colon; 36 µM with EKVX NSCLC; 22.3 µM with HOP-92 NSCLC; 46 µM in the assay on M14 melanoma. Moreover, the GI50 in the assay with MALME-3M melanoma was 25.6 µM; in the assay on OVCAR-3 ovarian, 17.8 µM; with OVCAR-8 ovarian, 20 µM; with SN12C renal, 53.4 µM. The TGI with ACHN renal is 34.5 µM; with CCRF-CEM leukemia, more than 100 µM; in the assay with COLO 205 colon it was 46.6 µM; in the assay on EKVX NSCLC, more than 100 µM; with HOP-92 NSCLC, 61.2 µM; with M14 melanoma it was more than 100 µM. Besides, the TGI in the assay with MALME-3M melanoma is 57.7 µM; in the assay on OVCAR-3 ovarian, 37.1 µM; in the assay with OVCAR-8 ovarian it was 48.6 µM; with SN12C renal it was more than 100 µM.

Turning to `CCOC(=O)c1c(C)nc2c(c1N)CC(=O)N2CCc1ccccc1`, the GI50 with ACHN renal was 0.595 µM; with CCRF-CEM leukemia, 0.389 µM; with COLO 205 colon it was 0.518 µM; in the assay with EKVX NSCLC it was 6.06 µM; in the assay on HOP-92 NSCLC, 0.496 µM; with M14 melanoma, 0.845 µM. Also, the GI50 was 1.31 µM with MALME-3M melanoma, 0.412 µM in the assay with OVCAR-3 ovarian, 3.17 µM with OVCAR-8 ovarian and 0.434 µM with SN12C renal. The TGI is 6.48 µM with ACHN renal; 14.4 µM with CCRF-CEM leukemia; 13.6 µM in the assay on COLO 205 colon; 68.8 µM in the assay on EKVX NSCLC; 18.7 µM with HOP-92 NSCLC; 3.47 µM in the assay on M14 melanoma. Further, the TGI stood at 4.9 µM in the assay on MALME-3M melanoma, 13.3 µM with OVCAR-3 ovarian, 16.7 µM in the assay with OVCAR-8 ovarian and 18.3 µM with SN12C renal.

With `O=C(O)CCc1c2ccc(=O)c(O)c-2oc2c(O)c(O)ccc12`, the TGI was more than 100 µM in the assay on ACHN renal; 13.8 µM in the assay with CCRF-CEM leukemia; more than 100 µM in the assay with COLO 205 colon; more than 100 µM in the assay on EKVX NSCLC; more than 100 µM in the assay on HOP-92 NSCLC; more than 100 µM in the assay on M14 melanoma. Further, the TGI is more than 100 µM in the assay with MALME-3M melanoma, more than 100 µM in the assay with OVCAR-3 ovarian, more than 100 µM in the assay on OVCAR-8 ovarian and 34.8 µM in the assay with SN12C renal.

As for `COc1ccc2c(c1)CC1c3c(ccc(OC)c3O)CC2N1C` (stereo not given), the TGI is more than 100 µM in the assay on ACHN renal; 80.6 µM with CCRF-CEM leukemia; 34.8 µM in the assay with COLO 205 colon; more than 84.3 µM in the assay on EKVX NSCLC; 70.9 µM in the assay on HOP-92 NSCLC; 32 µM in the assay with M14 melanoma. Also, the TGI with MALME-3M melanoma is 29.4 µM; in the assay on OVCAR-3 ovarian, more than 100 µM; with OVCAR-8 ovarian, more than 81.3 µM; with SN12C renal, more than 100 µM.

Consider `CCc1cc2ncc(CN3CCN(c4ccc(C(=O)NC)nc4)CC3)cc2[nH]c1=O`, for which the GI50 is 78.3 µM in the assay on ACHN renal; 97.1 µM in the assay on CCRF-CEM leukemia; more than 100 µM in the assay on COLO 205 colon; 84.9 µM in the assay with EKVX NSCLC; 12.3 µM with HOP-92 NSCLC; 92.4 µM in the assay with M14 melanoma. Moreover, the GI50 in the assay with MALME-3M melanoma is more than 100 µM; in the assay on OVCAR-3 ovarian, 40.5 µM; in the assay on OVCAR-8 ovarian it was more than 100 µM; in the assay on SN12C renal, 98.3 µM. In addition, the TGI with ACHN renal, in the assay on CCRF-CEM leukemia, in the assay on COLO 205 colon, in the assay with EKVX NSCLC, in the assay on HOP-92 NSCLC and with M14 melanoma was more than 100 µM each time. The TGI in the assay with MALME-3M melanoma, with OVCAR-3 ovarian, in the assay with OVCAR-8 ovarian and in the assay on SN12C renal was more than 100 µM throughout.

Turning to `O=c1c(Br)cc2c(-c3ccccc3)c3cc(Br)c(O)c(Br)c3oc-2c1Br`, the TGI in the assay on ACHN renal, in the assay with CCRF-CEM leukemia, in the assay with COLO 205 colon, with EKVX NSCLC, with HOP-92 NSCLC and in the assay with M14 melanoma was more than 100 µM in each case. The TGI in the assay on MALME-3M melanoma, with OVCAR-3 ovarian, in the assay with OVCAR-8 ovarian and with SN12C renal was more than 100 µM each time.

In the case of `CC1(C)C=N[N+]2(C)C3C=CC(CC3)C12` (stereo not given), the TGI in the assay on ACHN renal, in the assay with CCRF-CEM leukemia, in the assay with COLO 205 colon, with EKVX NSCLC, with HOP-92 NSCLC and in the assay with M14 melanoma was more than 100 µM in each case. Also, the TGI in the assay with MALME-3M melanoma, in the assay with OVCAR-3 ovarian, with OVCAR-8 ovarian and in the assay with SN12C renal was more than 100 µM in each case.

`Oc1cccc(/C=N/Nc2nnc(N/N=C/c3cccc(O)c3)c3ccccc23)c1`: the TGI was 40.7 µM with ACHN renal; 88.3 µM in the assay with CCRF-CEM leukemia; more than 100 µM in the assay on COLO 205 colon; 43.6 µM in the assay with EKVX NSCLC; 76.1 µM in the assay with HOP-92 NSCLC; more than 100 µM with M14 melanoma. Also, the TGI worked out at 57.3 µM in the assay on MALME-3M melanoma, 35.8 µM in the assay on OVCAR-3 ovarian, 18.1 µM with OVCAR-8 ovarian and 30.5 µM with SN12C renal.

On to `NC(N)=Nc1nc2ccc([N+](=O)[O-])cc2[nH]1`, for which the TGI in the assay on ACHN renal, in the assay on CCRF-CEM leukemia, with COLO 205 colon, with EKVX NSCLC, in the assay with HOP-92 NSCLC and in the assay on M14 melanoma was more than 100 µM throughout. Moreover, the TGI with MALME-3M melanoma, in the assay on OVCAR-3 ovarian, in the assay with OVCAR-8 ovarian and in the assay on SN12C renal was more than 100 µM in each case.

As for `CC12CO[C@@](C)(CC(S(=O)(=O)c3ccccc3)C1)O2` (stereo not given in full), the TGI with ACHN renal, in the assay on CCRF-CEM leukemia, in the assay with COLO 205 colon, in the assay on EKVX NSCLC, in the assay on HOP-92 NSCLC and with M14 melanoma was more than 100 µM throughout. For the same compound, the TGI with MALME-3M melanoma, in the assay on OVCAR-3 ovarian, in the assay on OVCAR-8 ovarian and in the assay with SN12C renal was more than 100 µM each time.

In the case of `C[C@]12CC[C@H]3[C@@H](C[C@@H]4SC(Nc5ccccc5)=N[C@@]45CC(O)CC[C@]35C)[C@@H]1CCC2O` (stereo not given in full), the GI50 in the assay on ACHN renal was 1.71 µM; with CCRF-CEM leukemia it was 1.6 µM; in the assay with COLO 205 colon, 2.45 µM; in the assay with EKVX NSCLC, 2.75 µM; with HOP-92 NSCLC, 2.84 µM; in the assay on M14 melanoma, 1.84 µM. In addition, the GI50 in the assay on MALME-3M melanoma is 2.19 µM; in the assay on OVCAR-3 ovarian it was 1.28 µM; in the assay with OVCAR-8 ovarian it was 3.43 µM; in the assay with SN12C renal, 1.65 µM. Besides, the TGI turned out to be 3.25 µM in the assay with ACHN renal; 27.1 µM in the assay on CCRF-CEM leukemia; 5.61 µM in the assay with COLO 205 colon; 9.26 µM with EKVX NSCLC; 6.77 µM in the assay on HOP-92 NSCLC; 4.27 µM in the assay with M14 melanoma. Further, the TGI came to 5.89 µM with MALME-3M melanoma, 2.62 µM in the assay on OVCAR-3 ovarian, 14.9 µM in the assay on OVCAR-8 ovarian and 3.28 µM in the assay with SN12C renal.
